The values that follow come from patent US8729048B2, “Methods and materials for assessing responsiveness to PARP inhibitors and platinating agents” (Mayo Foundation for Medical Education and Research, priority 2011, dated 2014).

Data set [1] concerns phospho-H2AX and phospho-DNA-PKcs foci in PEO1 cells. The experiment in a line: Immunofluorescence / confocal foci in PEO1 cells. It counts as cell-based. As to the method: FIG. 2. DNA-PK is activated following PARP inhibitor exposure in PEO1 cells. (A) Western blots for poly(ADP-ribose) polymer (pADPr) and phosphorylation of DNA-PK substrates (DNA-PKcs autophosphorylation at Thr^2609 and Histone H2AX at Ser^139) in PEO1 cells following 72 hours exposure to increasing concentrations of ABT-888 (0, 0.625, 1.25, 2.5, 5, 10, 20, and 40 μM). Hsp90, total DNA-PKcs, and Histone H1 are used as loading controls. (B) Phosphorylation of DNA-PK substrates after treatment for 72 hours with diluent (0.2% DMSO, lanes 1 and 4), 500 nM DNA-PK inhibitor AZ12594248 (DNA-PKi, lanes 2 and 5), or 5 μM ATM inhibitor KU55933 (ATMi, lanes 3 and 6) alone (lanes 1-3) or in combination with 20 μM ABT-888 (lanes 4-6). (C) Quantitation of cells positive for phospho-H2AX foci in PEO1 and PEO4 cells, following treatment with DMSO, 500 nM DNA-PKi, 20 μM ABT-888 (ABT), ABT-888 and DNA-PKi, 50 μM Etoposide (Etop), or 5 Gy ionizing radiation (IR). Cells were exposed to ABT-888 and/or DNA-PKi for 72 hours, etoposide for 1 hour, or allowed to recover for 1 hour after IR. Results are reported as mean±SEM of 3 independent experiments. (D) Confocal images of PEO1 cells treated as in […]. Phospho-Ser^139-H2AX is shown in green, phospho-Thr^2609-DNA-PKcs in red, and Hoechst 33258 in blue.
FIG. 8. PARP inhibition induces phosphorylation of DNA-PKcs selectively in PEO1 cells. (A) Quantitation of PEO1 cells positive for phospho-Ser^2056 DNA-PKcs foci following 72 hours exposure to increasing concentrations of ABT-888. (B) Quantitation of PEO1 cells positive for phospho-Ser^2056 DNA-PKcs foci following 72 hours exposure to diluent (0.2% DMSO), 500 nM DNA-PKi, 5 μM ATMi alone (columns 1-3) or with 20 μM ABT-888 (columns 4-6). (C) Representative confocal images of PEO1 cells from (B). Phospho-H2AX is shown in green, phospho-Thr^2609 DNA-PKcs in red, and Hoechst 33258 in blue. Results in (A) and (B) are presented as means±SEM of 3 independent experiments.
FIG. 9. siRNA-mediated knockdown of NHEJ components reduces ABT-888 induced formation of phospho-H2AX foci. PEO1 cells, following siRNA-mediated knockdown of Ku80 (A) or Artemis (B), were exposed to either diluent (0.1% DMSO) or 20 μM ABT-888 for 72 hours, fixed, and stained for phospho-H2AX foci. Positive nuclei were defined as having >10 foci. Results are presented as means±SEM of 3 independent experiments. […]
Coverslips were then washed three times with PBS and incubated for 1 h with Alexa Fluor 488- and/or 568-conjugated secondary antibody (Invitrogen) diluted 1:1000. […] Phospho-H2AX positive cells (defined as having >10 foci/cell) were counted on a Zeiss Axioplan microscope. […] Quantitation and image processing were performed using the Zeiss Zen software package and Adobe Photoshop CS3.

The test system of data set [2] is PEO1 cells. The experiment in a line: Cytogenetics, metaphase spreads, PEO1. It counts as cell-based. The protocol:
FIG. 4. PARP inhibitor-induced chromosomal derangement and genomic instability is dependent on DNA-PK activity. (A) Representative images of metaphase spreads from cells treated with diluent (0.2% DMSO), 500 nM DNA-PKi, 2.5 μM ABT-888, or both ABT-888 and DNA-PKi for 72 hours. Chromosomal breaks are marked with arrowheads and radial structures are marked with asterisks. (B) Quantitation of data from (A) showing average radial chromosomes per cell (n=100 for each data point pooled from two separate experiments, error bars represent SEM). † indicate values that are zero. (C) Calculated mutagenesis frequency in BRCA2-mutant CAPAN1 cells after control treatment or exposure to ABT-888 with or without 250 nM DNA-PKi. Each bar represents the mean±SEM of 5-8 plates.
Cell harvest and metaphase slide preparation were performed for metaphase analysis as described elsewhere (Fletcher, Curr. Protoc. Hum. Genet., 2:Unit 10.13. (1994)). Fifty non-banded metaphases from each cell line were analyzed and scored for radial formations as well as major and minor breakage according to the International System of Human Cytogenetic Nomenclature. Images of cells with breakage were captured using a CytoVision Imaging System (Genetix; New Milton, UK).

Each structure is given as a SMILES string.

As for `C[C@]1(c2nc3c(C(N)=O)cccc3[nH]2)CCCN1` [ABT-888], the phospho-H2AX foci entry in data set [1] (20 μM ABT-888, 72 hours) is reported as “induced phospho-H2AX foci”. In addition, the “DNA-PKcs autophosphorylation at Ser2056” value in data set [1] (72 hours) is “increased”. The “ABT-888 induced phospho-H2AX foci after downregulation of Ku80 or Artemis” value in data set [1] (siRNA knockdown, 20 μM ABT-888, 72 hours) is “reduced ABT-888 induced phospho-H2AX foci”. Moreover, the “chromosome breaks and aberrant radial structures” value in data set [2] (2.5 μM ABT-888, 72 hours) was “induced the formation of chromosome breaks and aberrant radial structures”.

Regarding `CCN1CCN(CC(=O)Nc2ccc(-c3cccc4c(=O)cc(N5CCOCC5)oc34)c3sc4ccccc4c23)CC1` [AZ 12594248], the “effect on ABT-888-induced formation of foci and phosphorylation of DNA-PKcs” value in data set [1] (500 nM DNA-PKi with 20 μM ABT-888, 72 hours) was “reduced”. Moreover, the “effect on ABT-888-induced chromosome breaks and radial structures” value in data set [2] (500 nM DNA-PKi with 2.5 μM ABT-888, 72 hours) is “substantially diminished this effect”.
